From PubChem BioAssay AID330 (DTP/NCI, 2004)
Values joined by “and” are separate entries in the source; they are usually repeats but may differ in a detail not shown here. Identical values can stand only once. Toxic doses and inconclusive results are not listed.

Test system: P388 leukemia ip, CD2F1 mice, survival T/C
Assay: NCI In Vivo Anticancer Drug Screen. Data for tumor model P388 Leukemia (intraperitoneal) in CD2F1 (CDF1) mice
Settings: endpoint: median survival time, higher = longer survival
Procedure, shortened: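 Mice carrying the transplanted tumor received test compound or vehicle. Survival was recorded in each group, and the value is the treated-group measurement divided by that of the vehicle-treated control group.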

[1] = dose: 50.0 mg/kg/injection, schedule: Q01DX005 (ip), vehicle: Klucel (hydroxypropylcellulose) (HPC)
[2] = dose: 100.0 mg/kg/injection, schedule: Q01DX005 (ip), vehicle: Klucel (hydroxypropylcellulose) (HPC)
[3] = dose: 200.0 mg/kg/injection, schedule: Q01DX005 (ip), vehicle: Klucel (hydroxypropylcellulose) (HPC)
[4] = dose: 50.0 mg/kg/injection, schedule: Q01DX009 (ip), vehicle: saline with Tween-80
[5] = dose: 100.0 mg/kg/injection, schedule: Q01DX009 (ip), vehicle: saline with Tween-80
[6] = dose: 200.0 mg/kg/injection, schedule: Q01DX009 (ip), vehicle: saline with Tween-80
[7] = dose: 100.0 mg/kg/injection, schedule: Q01DX001 (ip), vehicle: Klucel (hydroxypropylcellulose) (HPC)
[8] = dose: 50.0 mg/kg/injection, schedule: Q01DX005 (ip), vehicle: saline with Tween-80
[9] = dose: 100.0 mg/kg/injection, schedule: Q01DX005 (ip), vehicle: saline with Tween-80
[10] = dose: 200.0 mg/kg/injection, schedule: Q01DX005 (ip), vehicle: saline with Tween-80

COc1cc(C(=O)N/N=C/C(=O)O)cc(OC)c1OC
T/C [1]: 101 % of control
T/C [2]: 104 % of control
T/C [3]: 101 % of control

COc1ccc(/C=C2\SC(=O)N(C)C2=O)cc1OC
T/C [1]: 88 % of control
T/C [2]: 89 % of control

c1ccc2c(c1)[As]=c1ccccc1=[As]2 (stereo not given)
T/C (dose: 0.79 mg/kg/injection, schedule: Q01DX009 (ip), vehicle: saline): 107 % of control
T/C (dose: 1.56 mg/kg/injection, schedule: Q01DX009 (ip), vehicle: saline): 105 % of control and 118 % of control
T/C (dose: 3.12 mg/kg/injection, schedule: Q01DX009 (ip), vehicle: saline): 122 % of control
T/C (dose: 6.25 mg/kg/injection, schedule: Q01DX009 (ip), vehicle: saline): 173 % of control

CN1CCC(OC(=O)c2ccc3ncccc3c2)CC1
T/C (dose: 50.0 mg/kg/injection, schedule: Q04DX003 (ip), vehicle: saline): 100 % of control
T/C (dose: 100.0 mg/kg/injection, schedule: Q04DX003 (ip), vehicle: saline): 98 % of control

O=C1c2ccccc2CCC1[n+]1ccc2ccccc2c1 (stereo not given)
T/C (dose: 12.5 mg/kg/injection, schedule: Q01DX005 (ip), vehicle: Klucel (hydroxypropylcellulose) (HPC)): 102 % of control
T/C (dose: 25.0 mg/kg/injection, schedule: Q01DX005 (ip), vehicle: Klucel (hydroxypropylcellulose) (HPC)): 104 % of control
T/C [1]: 106 % of control and 111 % of control

C=CCCCC(=O)CCCCBr
T/C [4]: 122 % of control
T/C [5]: 108 % of control
T/C [6]: 110 % of control

O=c1cccccc1[O][Sn]([O]c1cccccc1=O)([c]1ccccc1)[c]1ccccc1
T/C (dose: 50.0 mg/kg/injection, schedule: Q01DX001 (ip), vehicle: Klucel (hydroxypropylcellulose) (HPC)): 104 % of control
T/C [7]: 116 % of control

CN(C)CC(O)c1ccc2ccc3ccccc3c2c1 (stereo not given)
T/C [7]: 102 % of control
T/C (dose: 200.0 mg/kg/injection, schedule: Q01DX001 (ip), vehicle: Klucel (hydroxypropylcellulose) (HPC)): 101 % of control
T/C (dose: 400.0 mg/kg/injection, schedule: Q01DX001 (ip), vehicle: Klucel (hydroxypropylcellulose) (HPC)): 101 % of control

CCOC1NC(=S)N(C2CCCCC2)C1(C)C (stereo not given)
T/C (dose: 50.0 mg/kg/injection, schedule: Q01DX009 (ip), vehicle: suspension in saline): 93 % of control
T/C (dose: 100.0 mg/kg/injection, schedule: Q01DX009 (ip), vehicle: suspension in saline): 92 % of control
T/C (dose: 200.0 mg/kg/injection, schedule: Q01DX009 (ip), vehicle: suspension in saline): 97 % of control

COc1cc(C2(c3ccc(O)c(OC)c3)CCCCC2)ccc1O
T/C (dose: 50.0 mg/kg/injection, schedule: Q01DX009 (ip), vehicle: Klucel (hydroxypropylcellulose) (HPC)): 100 % of control
T/C (dose: 100.0 mg/kg/injection, schedule: Q01DX009 (ip), vehicle: Klucel (hydroxypropylcellulose) (HPC)): 100 % of control
T/C (dose: 200.0 mg/kg/injection, schedule: Q01DX009 (ip), vehicle: Klucel (hydroxypropylcellulose) (HPC)): 100 % of control

NCCCCC(C(=O)NC(Cc1ccccc1)C(=O)O)N(C(=O)OCc1ccccc1)C(=O)OCc1ccccc1 (stereo not given)
T/C [8]: 96 % of control
T/C [9]: 101 % of control
T/C [10]: 92 % of control

O=C(O)c1ccc2c(c1Sc1ccccc1)C(=O)c1ccccc1C2=O
T/C (dose: 60.0 mg/kg/injection, schedule: Q01DX005 (ip), vehicle: Klucel (hydroxypropylcellulose) (HPC)): 110 % of control
T/C (dose: 120.0 mg/kg/injection, schedule: Q01DX005 (ip), vehicle: Klucel (hydroxypropylcellulose) (HPC)): 107 % of control

CC(c1ccc(OCc2ccccc2)cc1)c1cc2c(cc1OCCO)OCO2 (stereo not given)
T/C [8]: 98 % of control
T/C [9]: 100 % of control
T/C [10]: 100 % of control

O=C(Oc1cc(O)cc2[o+]c(-c3ccc(O)cc3)c(O)cc12)c1ccccc1
T/C [1]: 96 % of control
T/C [2]: 109 % of control
T/C [3]: 96 % of control

CN(C)C1(c2ccccc2)N=NN=S1C (stereo not given)
T/C (dose: 100.0 mg/kg/injection, schedule: Q04DX003 (ip), vehicle: saline with Tween-80): 105 % of control
T/C (dose: 200.0 mg/kg/injection, schedule: Q04DX003 (ip), vehicle: saline with Tween-80): 105 % of control

CCCCCCCCCOCC(=O)O
T/C [4]: 100 % of control
T/C [5]: 99 % of control
T/C [6]: 95 % of control

CN(C)CCO
T/C (dose: 60.0 mg/kg/injection, schedule: Q01DX005 (ip), vehicle: saline): 104 % of control
T/C (dose: 120.0 mg/kg/injection, schedule: Q01DX005 (ip), vehicle: saline): 100 % of control
T/C (dose: 240.0 mg/kg/injection, schedule: Q01DX005 (ip), vehicle: saline): 118 % of control

O=C(Nc1ccc(Cl)cc1)Nc1nnc(-c2ccc(F)cc2)o1
T/C (dose: 15.0 mg/kg/injection, schedule: Q01DX005 (ip), vehicle: saline with Tween-80): 100 % of control
T/C (dose: 30.0 mg/kg/injection, schedule: Q01DX005 (ip), vehicle: saline with Tween-80): 91 % of control
T/C (dose: 60.0 mg/kg/injection, schedule: Q01DX005 (ip), vehicle: saline with Tween-80): 90 % of control
